One data set relates to B16F10 melanoma. The data set is described as follows: B16F10 melanoma-bearing syngeneic mice treated with subcutaneous G-1, αPD-1 antibody, or both. In kind it is in vivo. From the text:
FIGS. 14A-14F illustrate the finding that treatment of melanoma bearing mice with G-1 and αPD-1 immunotherapy dramatically extends survival. FIG. 14A: Experimental timeline of B16F10 bearing mice treated with vehicle or G-1, as well as αPD-1 antibody or isotype antibody control (2A3), n=10 per group. FIG. 14B: Tumor volumes of treatment groups at Day 14, * denotes significance One-way ANOVA with Tukey's multiple comparison test. FIG. 14C: Survival curve of mice treated with vehicle or G-1, as well as isotype antibody control (2A3) or αPD-1 antibody. FIG. 14D: Experimental outline of YUMM1.7 bearing mice treated with vehicle or G-1, as well as isotype antibody control (2A3) or αPD-1 antibody. Treatment was started at day 14 after tumors reached 4-5 mm in diameter. n=5 per group. FIG. 14E: Tumor volumes over time of treatment groups. FIG. 14F: Survival curve of mice treated with vehicle or G-1, as well as αPD-1 antibody or isotype antibody control (2A3).
To determine whether G-1 has therapeutic utility as a systemically delivered agent with or without immune checkpoint inhibitors, B16F10 melanoma-bearing syngeneic mice were treated with subcutaneous G-1, αPD-1 antibody, or both, and survival compared to matched mice treated with vehicle and isotype antibody controls (in particular, non-specific isotype control antibody 2A3) (FIG. 14A). Total tumor volume was assessed after 5-50 days.

Data set [1] has as its system pCREB and c-Myc in NSCLC line LLC1. Nature of the data set: Western blot of LLC1 cells treated with G-1. Conditions: LLC1, 500 nM. In kind it is cell-based. The procedure: (§1) FIGS. 18A-18G illustrate the finding that GPER signaling reduces NSCLC cell proliferation in vitro and in vivo and has combinatorial effects with αPD-1 immunotherapy. FIG. 18A: Western blot for pCREB of LLC1 cells treated with 500 nM G-1 for 30 minutes. FIG. 18B: Proliferation assay of LLC1 treated with 500 nM G-1 for 6 days. FIG. 18C: Western blot for c-Myc of LLC1 cells treated with 500 nM G-1 for 6 days. FIG. 18D: Western blot for c-Myc of LLC1 cells treated with 500 nM G-1 over a time-course. […] FIG. 18F: Tumor volumes over time of LLC1 tumor bearing mice treated with vehicle or G-1, as well as αPD-1 antibody or isotype antibody control (2A3). FIG. 18G: Survival curve of mice treated with vehicle or G-1, as well as αPD-1 antibody or isotype antibody control (2A3).
Reproductive history influences lung cancer as well. Women have a decreasing risk of lung cancer correlated with the number children they have had.
In general terms: Immunoblotting shows a protein as a band on a membrane.

In another data set the test system is LLC1 tumors. The data set is described as follows: LLC1 tumor bearing mice treated with subcutaneous G-1, αPD-1 antibody, or both. The format is in vivo, mouse. On the procedure:
as §1
To test whether G-1 had activity in vivo and synergizes with PD-1 immunotherapy, LLC1 tumors were grown in mice that were treated with subcutaneous G-1, αPD-1 antibody, or both, and survival compared to matched mice treated with vehicle and isotype antibody controls.

The next data set has as its system normal human melanocytes. Nature of the data set: differentiation of normal human melanocytes after continuous or transient hormone exposure (melanin, RNAseq, Western blot). To be noted: normal human melanocytes, hormone or agonist exposure. The format is cell-based. On the procedure: FIG. 11A: Long-term melanin assay in which normal human melanocytes were transiently treated with progesterone (P4), or estrogen (E2). Subsets of these groups (Red) were treated with an additional transient pulse of P4 at Day 27. Error bars equal the standard deviation of the samples. FIG. 11B: Western blot of melanocyte differentiation markers after a transient, 4-day treatment with either vehicle or estrogen, followed by an 8 day withdraw period. FIG. 11C: Experimental timeline of estrogen or GPER agonist (G-1) pre-treatment of mouse and human melanoma cells, n=5 per group. FIG. 11D: Relative tumor weights of mouse and human melanomas pre-treated with estrogen, * denotes significance by the Mann-Whitney test. FIG. 11E: Relative tumor weights of mouse and human melanomas pre-treated with G-1, * denotes significance by the Mann-Whitney test.
Normal human melanocytes received a pulse-treatment of estrogen—this consisted of 4 days of estrogen treatment followed by an 8 day withdraw.
To test whether pregnancy-associated hormones induce long-lasting changes in melanocyte differentiation that may affect their future susceptibility to transformation, primary human melanocytes were transiently exposed to estrogen or progesterone (FIGS. 11A-11E).
A subset of cells differentiated by transient exposure to estrogen was subsequently treated with progesterone.

Another data set has as its system PDAC cell lines. The data set is described as follows: proliferation assay of PDAC cell lines treated with G-1. The format is cell-based. To be noted: 500 nM over 5 days.
The next data set deals with B16F10 melanoma cells. Nature of the data set: melanoma cells treated with G-1, HDACi, or in combination (Western blot, B16F10 proliferation assay). The format is cell-based. The text has this:
FIG. 16B: Western blot of p-RB, c-Myc, and H3K56ac in melanoma cells after treatment with G-1, HDACi, or in combination. FIG. 16C: Proliferation assay of B16F10 melanoma cells after treatment with G-1, HDACi, or in combination.
Histone acetyl marks are removed by several histone deacetylases (HDACs), which are aberrantly regulated in many cancers. Although HDAC inhibitors are approved as anticancer agents for cutaneous lymphoma, myeloma, and […], their utility in melanoma is unclear. […] HDAC efficacy may have been limited by the fact that trials were conducted without a differentiation driver to promote formation of acetylation marks on histones or other critical oncoproteins (such as c-Myc) that would then be stabilized by the HDACi. Without wishing to be limited by any theory, the anticancer effects of HDAC inhibitors can be potentiated by combination drug regimens that also promote histone acetylation at functionally critical sites. HDACi and GPER agonists independently promote melanoma cell differentiation, and also cooperate to potentiate the activity of each other (FIGS. 16B-16C).

`CC(=O)c1ccc2c(c1)[C@@H]1C=CC[C@@H]1[C@H](c1cc3c(cc1Br)OCO3)N2` (relative stereo) [Compound G-1, rel-1-[4-(6-bromo-1,3-benzodioxol-5-yl)-3aR,4S,5,9bS-tetrahydro-3H-cyclopenta[c]quinolin-8-yl]-ethanone]: the tumor growth entry in the data set on B16F10 melanoma (B16F10-bearing mice) is reported as “slowed tumor growth”; in the data set with LLC1 tumors, “slowed tumor growth initially”. Further, the survival result is recorded as “extended survival to the same extent as αPD-1” in the data set on B16F10 melanoma (B16F10-bearing mice, subcutaneous G-1) and “did not alter survival significantly” in the data set on LLC1 tumors. The tolerability entry with B16F10 melanoma (mice) is given as “well tolerated”. Besides, the pCREB levels entry in data set [1] (30 minutes) is given as “elevated pCREB levels”. The c-Myc protein result in data set [1] (long-term treatment (6 days)) was “reduction of c-Myc protein”. In the data set with normal human melanocytes, the “melanocyte differentiation state (melanin pigment production)” value is “increase the differentiation state of human melanocytes”. Moreover, in the data set on PDAC cell lines, the proliferation rates result is listed as “inhibited”. Besides, the “combined effect of G-1 and HDACi in melanoma cells” value in the data set with B16F10 melanoma cells was “synergizes with HDAC inhibitors”.

(Values after patent US11369618B2, “Compounds, compositions and methods for prevention and/or treatment of cancer” (THE TRUSTEES OF THE UNIVERSITY OF PENNSYLVANIA, priority 2016, dated 2022).)
